Test results as given in patent US11524966B1 (Valo Early Discovery, Inc., priority 2017, dated 2022).

The compounds below were run against T1, USP25 (USP25-His6, Boston Biochem E-546) (Homo sapiens, UniProt Q9UHP3) (assay: Ubiquitin-Rhodamine 110 Assay for USP25 Activity, Example A-2). Details: Ubiquitin-Rhodamine 110 assay, Example A-2; read-out: USP25 A-2 IC50 range.
T1 construct: His6; purchased Boston Biochem E-546
T1 sequence (Q9UHP3 1-1055): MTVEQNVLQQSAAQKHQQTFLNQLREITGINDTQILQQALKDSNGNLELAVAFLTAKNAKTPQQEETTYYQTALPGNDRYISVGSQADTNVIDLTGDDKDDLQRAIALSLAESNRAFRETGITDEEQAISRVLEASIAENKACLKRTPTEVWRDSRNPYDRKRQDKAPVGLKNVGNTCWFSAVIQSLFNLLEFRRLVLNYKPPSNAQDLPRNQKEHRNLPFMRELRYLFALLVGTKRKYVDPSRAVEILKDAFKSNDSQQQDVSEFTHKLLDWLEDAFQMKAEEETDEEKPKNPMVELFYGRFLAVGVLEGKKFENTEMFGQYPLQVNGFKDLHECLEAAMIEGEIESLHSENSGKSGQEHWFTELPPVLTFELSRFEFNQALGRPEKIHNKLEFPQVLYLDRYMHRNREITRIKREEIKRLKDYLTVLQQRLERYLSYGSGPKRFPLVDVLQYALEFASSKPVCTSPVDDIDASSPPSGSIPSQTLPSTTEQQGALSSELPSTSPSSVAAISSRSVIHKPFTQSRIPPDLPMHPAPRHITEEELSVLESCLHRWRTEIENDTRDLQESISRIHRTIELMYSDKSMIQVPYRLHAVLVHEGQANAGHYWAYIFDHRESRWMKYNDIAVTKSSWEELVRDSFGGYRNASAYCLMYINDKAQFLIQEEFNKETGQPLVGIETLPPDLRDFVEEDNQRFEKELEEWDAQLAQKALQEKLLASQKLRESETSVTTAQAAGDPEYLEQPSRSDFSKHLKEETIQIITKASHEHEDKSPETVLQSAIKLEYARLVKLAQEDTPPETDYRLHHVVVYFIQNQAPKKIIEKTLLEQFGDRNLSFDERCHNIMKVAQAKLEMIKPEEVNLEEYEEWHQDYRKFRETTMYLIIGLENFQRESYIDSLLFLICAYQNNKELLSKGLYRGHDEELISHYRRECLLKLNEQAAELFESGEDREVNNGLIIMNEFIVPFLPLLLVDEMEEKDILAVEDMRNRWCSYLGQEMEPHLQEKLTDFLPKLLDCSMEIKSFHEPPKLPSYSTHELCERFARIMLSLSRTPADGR
Assay type: biochemical
Method in brief: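 Cleavage of ubiquitin-rhodamine 110 (25 nM, well below Km) by His-tagged USP25 at 75 pM is measured fluorimetrically after 45 min at room temperature and acid quench. Inhibitors are preincubated with enzyme for 30 minutes. IC50 values come from four-parameter logistic curve fitting.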

Compared with `CCOC1CN(c2ccc3c(c2)OC[C@H](NC(=O)c2sc4nc(C)cc(C)c4c2N)C3)C[C@@H]1N` (stereo in doubt) [Example 323, 3-amino-N-[(3R)-7-[(3S,4R)-3-amino-4-ethoxypyrrolidin-1-yl]-3,4-dihydro-2H-1-benzopyran-3-yl]-4,6-dimethylthieno[2,3-b]pyridine-2-carboxamide], `CO[C@H]1CCN(c2ccc3c(c2)OC[C@H](NC(=O)c2sc4nc(C)cc(C)c4c2N)C3)C[C@@H]1N` [Example 317, 3-amino-N-[(3R)-7-[(3S,4S)-3-amino-4-methoxypiperidin-1-yl]-3,4-dihydro-2H-1-benzopyran-3-yl]-4,6-dimethylthieno[2,3-b]pyridine-2-carboxamide] is higher in IC50: 50 to 200 nM for the first, 200 to 2000 nM for the second. The first is the more potent here.

`COC[C@]1(C)CN(c2ccc3c(n2)CC[C@H](NC(=O)c2sc4nc(C)ccc4c2N)C3)C[C@@H]1N` [Example 342, 3-amino-N-[(6S)-2-[(3R,4R)-4-amino-3-(methoxymethyl)-3-methylpyrrolidin-1-yl]-5,6,7,8-tetrahydroquinolin-6-yl]-6-methylthieno[2,3-b]pyridine-2-carboxamide] and `COC[C@@]1(C)CN(c2ccc3c(n2)CC[C@H](NC(=O)c2sc4nc(C)ccc4c2N)C3)CC1N` (stereo in doubt) [Example 343, 3-amino-N-[(6S)-2-[(3S,4S)-4-amino-3-(methoxymethyl)-3-methylpyrrolidin-1-yl]-5,6,7,8-tetrahydroquinolin-6-yl]-6-methylthieno[2,3-b]pyridine-2-carboxamide] fall in the same range of IC50: 200 to 2000 nM for the first, 200 to 2000 nM for the second.

First: CCOC[C@@H]1CN(c2ccc3c(c2)OC[C@H](NC(=O)c2sc4nc(C)ccc4c2N)C3)C[C@@H]1N [Example 313, 3-amino-N-[(3R)-7-[(3R,4R)-3-amino-4-(ethoxymethyl)pyrrolidin-1-yl]-3,4-dihydro-2H-1-benzopyran-3-yl]-6-methylthieno[2,3-b]pyridine-2-carboxamide]
Second: Cc1ccc2c(N)c(C(=O)N[C@H]3COc4cc(N5C[C@@H](N)[C@H](C(F)F)C5)ccc4C3)sc2n1 [Example 295, 3-amino-N-[(3R)-7-[(3S,4R)-3-amino-4-(difluoromethyl)pyrrolidin-1-yl]-3,4-dihydro-2H-1-benzopyran-3-yl]-6-methylthieno[2,3-b]pyridine-2-carboxamide]
The IC50 of the first is higher: 200 to 2000 nM for the first, 50 to 200 nM for the second. The second is the more potent here.

`COC[C@@H]1CN(c2cc(F)c3c(c2F)OC[C@H](NC(=O)c2sc4nc(C)cc(C)c4c2N)C3)C[C@@H]1N` [Example 277, 3-amino-N-[(3R)-7-[(3R,4R)-3-amino-4-(methoxymethyl)pyrrolidin-1-yl]-5,8-difluoro-3,4-dihydro-2H-1-benzopyran-3-yl]-4,6-dimethylthieno[2,3-b]pyridine-2-carboxamide] and `COC[C@H]1CN(c2ccc3c(n2)CC[C@H](NC(=O)c2sc4nc(C)cc(C)c4c2N)C3)C[C@H]1N` [Example 297, 3-amino-N-[(6S)-2-[(3S,4S)-3-amino-4-(methoxymethyl)pyrrolidin-1-yl]-5,6,7,8-tetrahydroquinolin-6-yl]-4,6-dimethylthieno[2,3-b]pyridine-2-carboxamide] fall in the same range of IC50: 200 to 2000 nM for the first, 200 to 2000 nM for the second.

`Cc1ccc2c(N)c(C(=O)N[C@H]3COc4cc(N5CC6(C5)OCC[C@H]6N)ccc4C3)sc2n1` [Example 337, 3-amino-N-[(3R)-7-[(8R)-8-amino-5-oxa-2-azaspiro[3.4]octan-2-yl]-3,4-dihydro-2H-1-benzopyran-3-yl]-6-methylthieno[2,3-b]pyridine-2-carboxamide] and `Cc1ccc2c(N)c(C(=O)N[C@H]3COc4cc(N5CC6(C5)OCC[C@@H]6N)ccc4C3)sc2n1` [Example 338, 3-amino-N-[(3R)-7-[(8S)-8-amino-5-oxa-2-azaspiro[3.4]octan-2-yl]-3,4-dihydro-2H-1-benzopyran-3-yl]-6-methylthieno[2,3-b]pyridine-2-carboxamide] fall in the same range of IC50: 200 to 2000 nM for the first, 200 to 2000 nM for the second.

First: COC[C@@H]1CN(c2ccc3c(n2)CC[C@H](NC(=O)c2sc4nc(C)cnc4c2N)C3)C[C@@H]1N [Example 298, 7-amino-N-[(6S)-2-[(3R,4R)-3-amino-4-(methoxymethyl)pyrrolidin-1-yl]-5,6,7,8-tetrahydroquinolin-6-yl]-3-methylthieno[2,3-b]pyrazine-6-carboxamide]
Second: COC[C@H]1CN(c2ccc3c(n2)CC[C@H](NC(=O)c2sc4nc(C)cnc4c2N)C3)C[C@H]1N [Example 299, 7-amino-N-[(6S)-2-[(3S,4S)-3-amino-4-(methoxymethyl)pyrrolidin-1-yl]-5,6,7,8-tetrahydroquinolin-6-yl]-3-methylthieno[2,3-b]pyrazine-6-carboxamide]
The IC50 of the first is higher: greater than 2000 nM for the first, 200 to 2000 nM for the second. The second is the more potent here.

First: Cc1ccc2c(N)c(C(=O)N[C@H]3COc4cc(N5C[C@H]6CCN[C@H]6C5)ccc4C3)sc2n1 [Example 305, N-[(3R)-7-[(3aR,6aR)-octahydropyrrolo[3,4-b]pyrrol-5-yl]-3,4-dihydro-2H-1-benzopyran-3-yl]-3-amino-6-methylthieno[2,3-b]pyridine-2-carboxamide]
Second: CO[C@]12CNC[C@H]1CN(c1ccc3c(c1)OC[C@H](NC(=O)c1sc4nc(C)ccc4c1N)C3)C2 [Example 291, N-[(3R)-7-[(3aS,6aS)-3a-methoxy-octahydropyrrolo[3,4-c]pyrrol-2-yl]-3,4-dihydro-2H-1-benzopyran-3-yl]-3-amino-6-methylthieno[2,3-b]pyridine-2-carboxamide]
The IC50 of the first is lower: 50 to 200 nM for the first, 200 to 2000 nM for the second. The first is the more potent here.

Compared with `CO[C@H]1[C@@H](C)N(c2ccc3c(c2)OC[C@H](NC(=O)c2sc4nc(C)ccc4c2N)C3)C[C@@H]1N` [Example 336, 3-amino-N-[(3R)-7-[(2R,3R,4S)-4-amino-3-methoxy-2-methylpyrrolidin-1-yl]-3,4-dihydro-2H-1-benzopyran-3-yl]-6-methylthieno[2,3-b]pyridine-2-carboxamide], `CO[C@@H]1[C@@H](N)CN(c2ccc3c(c2)OC[C@H](NC(=O)c2sc4nc(C)ccc4c2N)C3)[C@H]1C` [Example 283, 3-amino-N-[(3R)-7-[(2S,3R,4S)-4-amino-3-methoxy-2-methylpyrrolidin-1-yl]-3,4-dihydro-2H-1-benzopyran-3-yl]-6-methylthieno[2,3-b]pyridine-2-carboxamide] is lower in IC50: 200 to 2000 nM for the first, 50 to 200 nM for the second.

`Cc1ccc2c(N)c(C(=O)N[C@H]3CCc4nc(N5C[C@H](N)[C@H](OC(C)C)C5)ccc4C3)sc2n1` [Example 321, 3-amino-N-[(6S)-2-[(3S,4R)-3-amino-4-(propan-2-yloxy)pyrrolidin-1-yl]-5,6,7,8-tetrahydroquinolin-6-yl]-6-methylthieno[2,3-b]pyridine-2-carboxamide] and `Cc1ccc2c(N)c(C(=O)N[C@H]3CCc4nc(N5C[C@H](OC(C)C)[C@@H](N)C5)ccc4C3)sc2n1` [Example 320] cannot be ordered by IC50: greater than 2000 nM for the first, greater than 2000 nM for the second.

First: N#Cc1c(N2CC3CCC(C2)N3)cc2c(c1F)C[C@@H](NC(=O)c1cnc3c(c1)[C@@H]1C[C@@H]1CN3)CO2 [Example 264, (6aS,7aR)-N-[(3R)-6-cyano-7-{3,8-diazabicyclo[3.2.1]octan-3-yl}-5-fluoro-3,4-dihydro-2H-1-benzopyran-3-yl]-5H,6H,6aH,7H,7aH-cyclopropa[c]1,8-naphthyridine-2-carboxamide]
Second: COC[C@H]1C[C@H](N)CN1c1ccc2c(c1)OC[C@H](NC(=O)c1sc3nc(C)ccc3c1N)C2 [Example 261, 3-amino-N-[(3R)-7-[(2R,4S)-4-amino-2-(methoxymethyl)pyrrolidin-1-yl]-3,4-dihydro-2H-1-benzopyran-3-yl]-6-methylthieno[2,3-b]pyridine-2-carboxamide]
The IC50 of the first is lower: 1 to 50 nM for the first, 50 to 200 nM for the second. The first is the more potent here.

First: COC[C@@H]1CN(c2ccc3c(n2)CC[C@H](NC(=O)c2sc4nc(C)ccc4c2N)C3)C[C@H]1N [Example 328, 3-amino-N-[(6S)-2-[(3S,4R)-3-amino-4-(methoxymethyl)pyrrolidin-1-yl]-5,6,7,8-tetrahydroquinolin-6-yl]-6-methylthieno[2,3-b]pyridine-2-carboxamide]
Second: CCO[C@@H]1CN(c2ccc3c(c2)CC[C@H](NC(=O)c2sc4nc(C)ccc4c2N)C3)C[C@@H]1N [Example 267, 3-amino-N-[(2S)-6-[(3S,4R)-3-amino-4-ethoxypyrrolidin-1-yl]-1,2,3,4-tetrahydronaphthalen-2-yl]-6-methylthieno[2,3-b]pyridine-2-carboxamide]
The IC50 of the first is higher: greater than 2000 nM for the first, 200 to 2000 nM for the second. The second is the more potent here.
